How the values were obtained:
Assay type in all cases: cell-based
[1] = test system: Ehrlich ascites mouse tumor cell line; test: MTT viability assay, Ehrlich ascites cells; conditions: Ehrlich ascites mouse cancer cells, 3 hours incubation with drug, read 24 hours after removal of the drug
Procedure: (§1) The cytotoxic activity of theses complexes was evaluated against 6 different cell lines, using the MTT assay (3-(4,5-dimethylthiazol-2-yl)-2,5-diphenyltetrazolium bromide assay) (Mosmann, T. J. Immunol. Methods, 1983, 65, 55-63) to measure the cell viability.
(§2) Cell lines were routinely propagated in 75 cm^2 tissue culture flasks (SARSTEDT, Leicester, U.K.), in a humidified atmosphere of 5% CO2 in air at 37° C., and were trypsinized and harvested into new medium every 2-4 days, just before confluence. Cell lines were cultured for a minimum of two passages after thawing prior to experimentation.
The Ehrlich ascites mouse tumor cell line was purchased at ECACC (European Collection of Cell culture) and propagated in NCTC-135 medium (Sigma, ref. N3262) 2 mM in L-glutamine, supplemented with 10% heat-inactivated fetal bovine serum (FBS) and 1% penicillin/streptomycin.
(§3) This assay is based on the capacity of mitochondrial dehydrogenase enzymes in living cells to convert the yellow water soluble substrate (MTI) into a dark blue product which is quantified by spectrophotometric means. Briefly, exponentially growing cells were trypsinized, dispensed in sixplicates into 96-well tissue culture plates and allowed to attach overnight. The next day the cells were treated with various concentrations of the drug, ranging from 1 to 1000 μM. By addition of an adequate volume of a freshly prepared DMSO solution of the compound to the medium, the desired test concentrations were obtained. For. each test concentration and for the control which contained the corresponding amount of DMSO, 6 wells were used. After an incubation period of 3 hours the cells were carefully washed (twice) with phosphate buffer saline (PBS) and 100 μl of medium were added. The cells were incubated for 24 hours and 10 μl of a MTT solution (5 mg/ml) were added to each well. The tetrazolium/formazan reaction was allowed to proceed for 4 hours and the medium was carefully removed. The dark blue formazan crystals were dissolved by adding 150 μl of DMSO and agitating for 15 minutes in a plate shaker. The optical density was measured at […] using a 96-well multiscanner autoreader. The percentage of survival was calculated using the formula: % survival=live cell number [test]/live cell number [control]×100. The IC50 values were calculated by nonlinear regression analysis using the graphed Prism software (GraphPad Software, Inc., San Diego, Calif.) and are compiled in tables 2-4.
(§4) Using the colorimetric mitochondrial function-based MTT viability assay, we examined the effects of molybdenum (II) complexes against 6 different cell lines, by measuring the cellular proliferation at 8 different concentrations ranging from 1 to 1000 μM, 24 hours after removal of the drug. The IC50 values were calculated from dose-response curves obtained by nonlinear regression analysis. FIG. 4 represent and compare dose-response curves obtained for several molybdenum compounds against the Ehrlich ascites mouse cell line.

[2] = test system: non-tumoral MRC-5 human fibroblast; test: MTT viability assay, non-tumoral human fibroblasts; conditions: MRC-5 human fibroblasts, 3 hours incubation with drug, 24 hours after removal
Procedure: as §1, §2
The […] cells, secondary human lung fibroblasts, were purchased at ECACC. The cells were grown in MEM with Earls' Salt and L-glutamine (Gibco, ref. 61100-053), supplemented with 10% fetal bovine serum (FBS) and 1% neomycin.
as §3, §4

[3] = test system: GP-202 gastric human cell line; test: MTT viability assay, GP-202 cells; conditions: 3 hours incubation with drug, 24 hours after removal, read-out: IC50 VALUE, Human tumoral cell lines, Gastric GP-202
Procedure: as §1, §2
(§5) The tumnoral GP-202 and GP-220 gastric human cell lines were established at IPATIMUP (Instituto de Patologia e Imunologia Molecular da Universidade do Porto). […]
(§6) This assay is based on the capacity of mitochondrial dehydrogenase enzymes in living cells to convert the yellow water soluble substrate (MTI) into a dark blue product which is quantified by spectrophotometric means. […] The optical density was measured at […] using a 96-well multiscanner autoreader. The percentage of survival was calculated using the formula: % survival=live cell number [test]/live cell number [control]×100. The IC50 values were calculated by nonlinear regression analysis using the graphed Prism software (GraphPad Software, Inc., San Diego, Calif.) and are compiled in tables 2-4. […]

[4] = test system: GP-220 gastric human cell line; test: MTT viability assay, GP-220 cells; conditions: 3 hours incubation with drug, 24 hours after removal, read-out: IC50 VALUE, Human tumoral cell lines, Gastric GP-220
Procedure: as §1, §2, §5, §6

[5] = test system: MKN45 gastric human cell line; test: MTT viability assay, MKN-45 cells; conditions: 3 hours incubation with drug, 24 hours after removal, read-out: IC50 VALUE, Human tumoral cell lines, Gastric MKN-45
Procedure: as §1, §2
(§7) The tumoral MKN45 gastric and HT-29 colorectal human cell lines were purchased at ECACC. […]
as §6

[6] = test system: HT-29 colorectal human cell line; test: MTT viability assay, HT-29 cells; conditions: 3 hours incubation with drug, 24 hours after removal, read-out: IC50 VALUE, Human tumoral cell lines, Colon HT-29
Procedure: as §1, §2, §7, §6

Row | Substance | IC50 [1] [µM] | IC50 [2] [µM] | IC50 [3] [µM] | IC50 [4] [µM] | IC50 [5] [µM] | IC50 [6] [µM]
1 | [(η^5-Ind)Mo(CO)2trithiane]BF4 [Compound 15] | 20.7 ± 1 | 136.6 ± 1 |  |  |  | 
2 | [(η^5-Ind)Mo(CO)2(4,7-Ph2-1,10-phen)]BF4 [Compound 6] | 5.7 ± 1 | 14.9 ± 1 | 4.2 ± 1.1 | 1.8 ± 1.1 | 4.6 ± 1.1 | 6.6 ± 1
3 | (η^3-C3H5)Mo(CO)2(4,7-diphenyl-1,10-phen)Br [Compound 25] | 12.5 ± 1.2 | 12.1 ± 1.1 |  |  |  | 
4 | [(η^5-Ind)Mo(CO)2bpy]BF4 [Compound 1] | 95.9 ± 1.1 | 143.2 ± 1.1 |  |  |  | 
5 | [(η^5-Ind)Mo(CO)2(p-tolilDAB)]BF4 [Compound 3] | 6.6 ± 1 | 84.1 ± 1 |  |  |  | 
6 | [(η^5-Ind)Mo(CO)2(2,2′-biq)]BF4 [Compound 8] | 35 ± 1.1 | 13 ± 1 | 5 ± 1.1 | 2.7 ± 1 | 4.4 ± 1 | 13.3 ± 1.1
7 | (η^3-C3H5)Mo(CO)2(1,10-phen)Br [Compound 24] | 7.3 ± 1 |  |  |  |  | 
8 | [(η^5-Ind)Mo(CO)2(1,4,7,10-tetrt)]BF4 [Compound 17] | 19.9 ± 1.1 | 213.5 ± 1.1 |  |  |  | 
9 | [(η^5-Cp)Mo(CO)2{5,6-Ph2-3-(2-py)-1,2,4-Tz}]BF4 [Compound 22] | 105 ± 1.2 | 68.9 ± 1.1 |  |  |  | 
10 | [(η^5-Ind)Mo(CO)2(4,7-Me2-1,10-phen)]BF4 [Compound 7] | 29.5 ± 1 | 64.4 ± 1.1 |  |  |  | 
11 | [(η^5-Ind)Mo(CO)2(4,4′-Ph2-2,2′-bpy)]BF4 [Compound 2] | 13.7 ± 1.1 |  |  |  |  | 
12 | [(η^5-Ind)Mo(CO)2tten]BF4 [Compound 16] | 8.4 ± 1.1 | 91 ± 1.1 |  |  |  | 
13 | [(η^5-Ind)Mo(CO)2{5,6-Ph2-3-(2-py)-1,2,4-Tz}]BF4 [Compound 9] |  | 13.4 ± 1 |  |  |  | 
14 | [(η^5-Cp)Mo(CO)2tten]BF4 [Compound 20] | 138.9 ± 1.2 | 139.8 ± 1.2 |  |  |  | 
15 | [(η^5-Ind)Mo(CO)2phen]BF4 [Compound 5] | 32.9 ± 1 | 73.3 ± 1.1 |  |  |  | 
16 | [(η^5-Ind)Mo(CO)2{1,2-Ph(NH2)2}]BF4 [Compound 13] | 67.6 ± 1.2 | 73.7 ± 1.1 |  |  |  | 
17 | [(η^5-Ind)Mo(CO)2(NCMe)2]BF4 [Compound 18] | 56.7 ± 1.7 |  |  |  |  | 
18 | (η^3-C3H5)Mo(CO)2(2,3-Me2-p-tolilDAB)Br [Compound 23] | 59.1 ± 1.1 | 104 ± 1.1 |  |  |  | 
19 | [(η^5-Ind)Mo(CO)2dppe]BF4 [Compound 14] | 5.8 ± 1.1 | 20.3 ± 1.1 |  |  |  | 
20 | [(η^5-Ind)Mo(CO)2(CYDAB)]BF4 [Compound 4] | 140.3 ± 1.2 | 75 ± 1.1 |  |  |  | 
21 | [(η^5-Cp)Mo(CO)2trithiane]BF4 [Compound 19] | 142.1 ± 1.1 |  |  |  |  | 
22 | [(η^5-Cp)Mo(CO)2dppe]BF4 [Compound 21] | 20 ± 1.1 | 24 ± 1 |  |  |  | 

From US20080311189A1, “Compositions Comprising Organometallic Molybdenum Compounds For Treating Cancer” (priority 2004, published 2008)
